Columns and labels:
Assay in all cases: kinase panel
Type in all cases: biochemical
HIPK3(h) = HIPK3(h) (Homo sapiens, UniProt Q9H422)
Summary of the method: (§1)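 Values are percent inhibition from kinome-wide profiling of three series compounds across 231 kinases, with a structurally similar analogue tested on only 98 selected kinases.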

Pyk2(h) = Pyk2(h) (Homo sapiens, UniProt Q14289)
Summary of the method: as §1

EphA4(h) = EphA4(h) (Homo sapiens, UniProt P54764)
Summary of the method: as §1

Ros(h) = Ros(h) (Homo sapiens, UniProt P08922)
Summary of the method: as §1

MRCKβ(h) = MRCKβ(h) (Homo sapiens, UniProt Q9Y5S2)
Sequence of MRCKβ(h) (Q9Y5S2 whole entry): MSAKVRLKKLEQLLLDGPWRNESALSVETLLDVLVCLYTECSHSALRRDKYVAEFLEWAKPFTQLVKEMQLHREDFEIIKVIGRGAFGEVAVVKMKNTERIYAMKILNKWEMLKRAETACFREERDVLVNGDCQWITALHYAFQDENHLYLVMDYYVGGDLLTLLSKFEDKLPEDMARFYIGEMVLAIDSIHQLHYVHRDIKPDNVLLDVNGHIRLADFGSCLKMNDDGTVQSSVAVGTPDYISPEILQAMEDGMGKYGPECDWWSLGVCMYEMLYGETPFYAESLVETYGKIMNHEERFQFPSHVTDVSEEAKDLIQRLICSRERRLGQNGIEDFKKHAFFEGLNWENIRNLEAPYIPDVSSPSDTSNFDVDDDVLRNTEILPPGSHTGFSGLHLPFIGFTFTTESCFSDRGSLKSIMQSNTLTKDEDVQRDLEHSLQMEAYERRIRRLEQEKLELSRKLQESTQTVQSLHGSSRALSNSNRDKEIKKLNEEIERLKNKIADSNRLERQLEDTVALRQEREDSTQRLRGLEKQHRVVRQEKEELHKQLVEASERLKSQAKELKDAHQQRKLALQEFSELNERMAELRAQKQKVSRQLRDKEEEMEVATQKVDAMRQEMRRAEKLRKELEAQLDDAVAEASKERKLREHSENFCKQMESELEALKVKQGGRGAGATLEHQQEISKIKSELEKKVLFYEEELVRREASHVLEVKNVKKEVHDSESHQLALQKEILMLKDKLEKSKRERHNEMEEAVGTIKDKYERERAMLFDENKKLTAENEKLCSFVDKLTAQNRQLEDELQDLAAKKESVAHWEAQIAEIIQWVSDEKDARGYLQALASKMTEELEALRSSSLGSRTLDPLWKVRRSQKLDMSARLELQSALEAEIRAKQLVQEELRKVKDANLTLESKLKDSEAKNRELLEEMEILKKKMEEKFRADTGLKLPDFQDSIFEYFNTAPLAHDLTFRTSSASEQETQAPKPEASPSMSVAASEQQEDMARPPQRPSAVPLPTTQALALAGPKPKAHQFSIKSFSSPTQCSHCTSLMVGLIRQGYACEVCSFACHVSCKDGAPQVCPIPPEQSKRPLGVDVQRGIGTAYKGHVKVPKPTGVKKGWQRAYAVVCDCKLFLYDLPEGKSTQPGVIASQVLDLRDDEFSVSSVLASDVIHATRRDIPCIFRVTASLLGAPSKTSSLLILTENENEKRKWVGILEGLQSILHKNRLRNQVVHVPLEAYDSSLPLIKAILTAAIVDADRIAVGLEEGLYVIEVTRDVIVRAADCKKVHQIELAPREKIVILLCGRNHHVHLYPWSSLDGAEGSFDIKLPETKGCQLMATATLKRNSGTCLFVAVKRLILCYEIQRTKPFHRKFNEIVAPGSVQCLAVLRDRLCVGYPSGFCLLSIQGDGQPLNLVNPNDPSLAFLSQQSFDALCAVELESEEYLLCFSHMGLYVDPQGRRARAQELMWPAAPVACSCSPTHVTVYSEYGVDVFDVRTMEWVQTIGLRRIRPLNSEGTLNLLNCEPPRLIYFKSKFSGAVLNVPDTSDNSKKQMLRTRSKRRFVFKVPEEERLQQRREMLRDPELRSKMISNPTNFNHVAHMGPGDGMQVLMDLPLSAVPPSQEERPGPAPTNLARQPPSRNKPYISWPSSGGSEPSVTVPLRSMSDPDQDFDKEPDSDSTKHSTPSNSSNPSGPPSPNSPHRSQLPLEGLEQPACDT
Summary of the method: as §1

PAK4(h) = PAK4(h) (Homo sapiens, UniProt O96013)
Summary of the method: as §1

SGK2(h) = SGK2(h) (Homo sapiens, UniProt Q9HBY8)
Summary of the method: as §1

cKit(h) = cKit(h) (Homo sapiens, UniProt P10721)
Summary of the method: as §1

GRK5(h) = GRK5(h) (Homo sapiens, UniProt P34947)
Summary of the method: as §1

STK33(h) = STK33(h) (Homo sapiens, UniProt Q9BYT3)
Summary of the method: as §1

Txk(h) = Txk(h) (Homo sapiens, UniProt P42681)
Summary of the method: as §1

Plk3(h) = Plk3(h) (Homo sapiens, UniProt Q9H4B4)
Summary of the method: as §1

MST3(h) = MST3(h) (Homo sapiens, UniProt Q9Y6E0)
Sequence of MST3(h) (Q9Y6E0 whole entry): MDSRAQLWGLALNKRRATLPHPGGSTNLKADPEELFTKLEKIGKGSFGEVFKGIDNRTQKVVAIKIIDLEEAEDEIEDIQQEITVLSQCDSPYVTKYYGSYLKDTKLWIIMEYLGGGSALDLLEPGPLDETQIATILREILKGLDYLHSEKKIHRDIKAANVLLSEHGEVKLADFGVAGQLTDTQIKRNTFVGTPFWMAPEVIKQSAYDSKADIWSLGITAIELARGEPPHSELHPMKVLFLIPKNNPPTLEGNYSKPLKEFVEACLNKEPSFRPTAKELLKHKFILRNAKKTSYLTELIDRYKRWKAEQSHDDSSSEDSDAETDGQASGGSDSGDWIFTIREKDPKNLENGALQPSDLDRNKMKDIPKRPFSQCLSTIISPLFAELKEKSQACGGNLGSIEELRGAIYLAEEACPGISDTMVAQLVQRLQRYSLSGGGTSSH
Summary of the method: as §1

AMPKα2(h) = AMPKα2(h) (Homo sapiens, UniProt P54646)
Summary of the method: as §1

CLK3(h) = CLK3(h) (Homo sapiens, UniProt P49761)
Summary of the method: as §1

Rsk3(h) = Rsk3(h) (Homo sapiens, UniProt Q15349)
Summary of the method: as §1

MELK(h) = MELK(h) (Homo sapiens, UniProt Q14680)
Summary of the method: as §1

PEK(h) = PEK(h) (Homo sapiens, UniProt Q9NZJ5)
Summary of the method: as §1

ASK1(h) = ASK1(h) (Homo sapiens, UniProt Q99683)
Sequence of ASK1(h) (Q99683 whole entry): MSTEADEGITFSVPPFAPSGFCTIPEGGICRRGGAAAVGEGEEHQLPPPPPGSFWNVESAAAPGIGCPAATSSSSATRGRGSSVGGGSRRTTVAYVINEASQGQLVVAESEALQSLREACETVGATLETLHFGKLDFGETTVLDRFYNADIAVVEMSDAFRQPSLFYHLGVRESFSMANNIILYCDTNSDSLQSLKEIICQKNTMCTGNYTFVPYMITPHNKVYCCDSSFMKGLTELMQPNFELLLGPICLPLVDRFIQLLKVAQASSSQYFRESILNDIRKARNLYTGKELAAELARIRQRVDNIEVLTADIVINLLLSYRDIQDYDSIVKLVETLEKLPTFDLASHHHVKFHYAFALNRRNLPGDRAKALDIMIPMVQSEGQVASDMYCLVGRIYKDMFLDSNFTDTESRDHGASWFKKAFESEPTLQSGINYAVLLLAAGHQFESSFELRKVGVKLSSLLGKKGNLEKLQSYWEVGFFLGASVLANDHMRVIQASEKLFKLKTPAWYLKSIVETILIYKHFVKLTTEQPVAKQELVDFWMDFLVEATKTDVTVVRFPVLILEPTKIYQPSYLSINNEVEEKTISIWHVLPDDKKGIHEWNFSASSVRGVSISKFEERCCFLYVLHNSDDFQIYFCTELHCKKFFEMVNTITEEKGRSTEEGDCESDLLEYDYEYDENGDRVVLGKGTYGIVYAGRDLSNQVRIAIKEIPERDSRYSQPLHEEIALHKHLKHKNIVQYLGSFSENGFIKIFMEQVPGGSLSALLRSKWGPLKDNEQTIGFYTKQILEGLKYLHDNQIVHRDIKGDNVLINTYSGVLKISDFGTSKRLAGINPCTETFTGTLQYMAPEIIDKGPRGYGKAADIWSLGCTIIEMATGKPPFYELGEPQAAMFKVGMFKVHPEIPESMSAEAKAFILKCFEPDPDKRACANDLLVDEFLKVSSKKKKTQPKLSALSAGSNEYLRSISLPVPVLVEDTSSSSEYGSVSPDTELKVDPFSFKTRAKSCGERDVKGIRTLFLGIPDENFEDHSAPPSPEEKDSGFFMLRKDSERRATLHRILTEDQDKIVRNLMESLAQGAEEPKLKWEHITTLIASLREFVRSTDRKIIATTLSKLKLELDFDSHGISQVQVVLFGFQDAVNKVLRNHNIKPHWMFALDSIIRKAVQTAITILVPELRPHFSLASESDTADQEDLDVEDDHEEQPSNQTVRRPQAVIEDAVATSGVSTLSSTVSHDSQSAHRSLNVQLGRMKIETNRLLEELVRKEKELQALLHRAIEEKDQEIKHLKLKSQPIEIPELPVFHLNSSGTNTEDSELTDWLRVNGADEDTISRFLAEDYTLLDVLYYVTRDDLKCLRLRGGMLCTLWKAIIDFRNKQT
Summary of the method: as §1

Hck(h) = Hck(h) (Homo sapiens, UniProt P08631)
Summary of the method: as §1

Snk(h) = Snk(h) (Homo sapiens, UniProt Q9NYY3)
Summary of the method: as §1

Axl(h) = Axl(h) (Homo sapiens, UniProt P30530)
Summary of the method: as §1

EphB2(h) = EphB2(h) (Homo sapiens, UniProt P29323)
Summary of the method: as §1

CK1γ1(h) = CK1γ1(h) (Homo sapiens, UniProt Q9HCP0)
Summary of the method: as §1

SRPK1(h) = SRPK1(h) (Homo sapiens, UniProt Q96SB4)
Summary of the method: as §1

IGF-1R(h), activated = IGF-1R(h), activated (Homo sapiens, UniProt P08069)
Summary of the method: as §1

Hck(h) activated = Hck(h) activated (Homo sapiens, UniProt P08631)
Summary of the method: as §1

CK2α2(h) = CK2α2(h) (Homo sapiens, UniProt P19784)
Sequence of CK2α2(h) (P19784 whole entry): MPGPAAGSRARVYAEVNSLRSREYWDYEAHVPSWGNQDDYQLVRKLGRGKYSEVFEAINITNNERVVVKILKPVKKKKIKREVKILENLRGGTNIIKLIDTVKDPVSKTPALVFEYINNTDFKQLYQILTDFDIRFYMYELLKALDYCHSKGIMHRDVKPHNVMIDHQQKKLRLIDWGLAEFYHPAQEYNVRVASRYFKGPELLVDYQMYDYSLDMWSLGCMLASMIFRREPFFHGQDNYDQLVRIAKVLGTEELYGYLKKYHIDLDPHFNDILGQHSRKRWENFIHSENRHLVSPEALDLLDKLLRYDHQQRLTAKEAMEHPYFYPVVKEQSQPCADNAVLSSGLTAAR
Summary of the method: as §1

EphA7(h) = EphA7(h) (Homo sapiens, UniProt Q15375)
Summary of the method: as §1

SRPK2(h) = SRPK2(h) (Homo sapiens, UniProt P78362)
Summary of the method: as §1

eEF-2K(h) = eEF-2K(h) (Homo sapiens, UniProt O00418)
Summary of the method: as §1

CK1γ3(h) = CK1γ3(h) (Homo sapiens, UniProt Q9Y6M4)
Summary of the method: as §1

PrKX(h) = PrKX(h) (Homo sapiens, UniProt P51817)
Summary of the method: as §1

ULK3(h) = ULK3(h) (Homo sapiens, UniProt Q6PHR2)
Summary of the method: as §1

PKG1α(h) = PKG1α(h) (Homo sapiens, UniProt Q13976)
Summary of the method: as §1

SAPK2a(h) = SAPK2a(h) (Homo sapiens, UniProt Q16539)
Summary of the method: as §1

TGFBR1(h) = TGFBR1(h) (Homo sapiens, UniProt P36897)
Sequence of TGFBR1(h) (P36897 34-503): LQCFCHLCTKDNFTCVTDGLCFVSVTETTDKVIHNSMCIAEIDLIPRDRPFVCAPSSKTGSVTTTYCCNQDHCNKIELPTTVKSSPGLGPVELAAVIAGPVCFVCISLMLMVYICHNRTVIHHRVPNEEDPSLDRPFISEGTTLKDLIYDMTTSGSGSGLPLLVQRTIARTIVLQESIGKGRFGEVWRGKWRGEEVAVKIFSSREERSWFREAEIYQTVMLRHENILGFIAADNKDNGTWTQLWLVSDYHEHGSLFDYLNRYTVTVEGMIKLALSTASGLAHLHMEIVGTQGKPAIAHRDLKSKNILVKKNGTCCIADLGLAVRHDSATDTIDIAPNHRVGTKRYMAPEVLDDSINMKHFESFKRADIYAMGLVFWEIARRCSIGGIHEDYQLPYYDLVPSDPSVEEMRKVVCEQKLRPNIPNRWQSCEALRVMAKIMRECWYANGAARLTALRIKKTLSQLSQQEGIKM
Summary of the method: as §1

PKA(h) = PKA(h) (Homo sapiens, UniProt P17612)
Summary of the method: as §1

PKCδ(h) = PKCδ(h) (Homo sapiens, UniProt Q05655)
Summary of the method: as §1

BrSK2(h) = BrSK2(h) (Homo sapiens, UniProt Q8IWQ3)
Summary of the method: as §1

Fgr(h) = Fgr(h) (Homo sapiens, UniProt P09769)
Summary of the method: as §1

PAK5(h) = PAK5(h) (Homo sapiens, UniProt Q9P286)
Sequence of PAK5(h) (Q9P286 whole entry): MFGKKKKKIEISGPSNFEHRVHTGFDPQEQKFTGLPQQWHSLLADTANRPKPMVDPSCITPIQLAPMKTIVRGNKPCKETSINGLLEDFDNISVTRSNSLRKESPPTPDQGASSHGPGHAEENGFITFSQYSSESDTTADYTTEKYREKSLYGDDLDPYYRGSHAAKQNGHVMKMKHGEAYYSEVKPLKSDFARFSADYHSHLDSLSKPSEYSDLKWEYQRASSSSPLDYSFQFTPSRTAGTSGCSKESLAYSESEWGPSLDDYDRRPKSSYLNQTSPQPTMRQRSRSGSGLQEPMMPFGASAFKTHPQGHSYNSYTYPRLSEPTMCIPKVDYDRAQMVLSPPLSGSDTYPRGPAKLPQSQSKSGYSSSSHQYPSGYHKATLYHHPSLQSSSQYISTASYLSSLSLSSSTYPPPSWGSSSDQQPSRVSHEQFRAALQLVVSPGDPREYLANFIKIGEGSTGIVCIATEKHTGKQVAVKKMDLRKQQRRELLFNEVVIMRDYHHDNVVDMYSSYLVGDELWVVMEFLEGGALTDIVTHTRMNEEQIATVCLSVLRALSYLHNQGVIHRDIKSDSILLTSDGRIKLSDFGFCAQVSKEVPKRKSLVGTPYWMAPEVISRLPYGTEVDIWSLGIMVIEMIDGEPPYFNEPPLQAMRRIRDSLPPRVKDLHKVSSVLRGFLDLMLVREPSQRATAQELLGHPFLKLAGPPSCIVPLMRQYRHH
Summary of the method: as §1

Nc1n[nH]c2ccc(-c3ccnc4[nH]c(-c5ccccc5)cc34)cc12 [Compound 4]
inhibition at 1 µM (HIPK3(h)): 26% | inhibition at 1 µM (Pyk2(h)): 63% | inhibition at 1 µM (EphA4(h)): 9% | inhibition at 1 µM (Ros(h)): 16% | inhibition at 1 µM (MRCKβ(h)): -10% | inhibition at 1 µM (PAK4(h)): 42% | inhibition at 1 µM (SGK2(h)): 44% | inhibition at 1 µM (cKit(h)): 51% | inhibition at 1 µM (GRK5(h)): 5% | inhibition at 1 µM (STK33(h)): 38% | inhibition at 1 µM (Txk(h)): 43% | inhibition at 1 µM (Plk3(h)): -6% | inhibition at 1 µM (MST3(h)): 6% | inhibition at 1 µM (AMPKα2(h)): 43% | inhibition at 1 µM (CLK3(h)): 74% | inhibition at 1 µM (Rsk3(h)): 53% | inhibition at 1 µM (MELK(h)): 41% | inhibition at 1 µM (PEK(h)): 10% | inhibition at 1 µM (ASK1(h)): 18% | inhibition at 1 µM (Hck(h)): 21% | inhibition at 1 µM (Snk(h)): 1% | inhibition at 1 µM (Axl(h)): 55% | inhibition at 1 µM (EphB2(h)): 12% | inhibition at 1 µM (CK1γ1(h)): 20% | inhibition at 1 µM (SRPK1(h)): 5% | inhibition at 1 µM (IGF-1R(h), activated): 61% | inhibition at 1 µM (Hck(h) activated): 38% | inhibition at 1 µM (CK2α2(h)): 5% | inhibition at 1 µM (EphA7(h)): 26% | inhibition at 1 µM (SRPK2(h)): -5% | inhibition at 1 µM (eEF-2K(h)): 0% | inhibition at 1 µM (CK1γ3(h)): 29% | inhibition at 1 µM (PrKX(h)): -21% | inhibition at 1 µM (ULK3(h)): 48% | inhibition at 1 µM (PKG1α(h)): 29% | inhibition at 1 µM (SAPK2a(h)): -16% | inhibition at 1 µM (TGFBR1(h)): 28% | inhibition at 1 µM (PKA(h)): 29% | inhibition at 1 µM (PKCδ(h)): 16% | inhibition at 1 µM (BrSK2(h)): 41% | inhibition at 1 µM (Fgr(h)): 54% | inhibition at 1 µM (PAK5(h)): 16%

Nc1n[nH]c2ccc(-c3ccnc4[nH]c(-c5cccc(OCc6ccccc6)c5)cc34)cc12 [Compound 5r [SU1261]]
inhibition at 1 µM (HIPK3(h)): 6% | inhibition at 1 µM (Pyk2(h)): 22% | inhibition at 1 µM (EphA4(h)): 2% | inhibition at 1 µM (Ros(h)): 11% | inhibition at 1 µM (MRCKβ(h)): 4% | inhibition at 1 µM (PAK4(h)): 37% | inhibition at 1 µM (SGK2(h)): 30% | inhibition at 1 µM (cKit(h)): 9% | inhibition at 1 µM (GRK5(h)): 3% | inhibition at 1 µM (STK33(h)): 25% | inhibition at 1 µM (Txk(h)): 27% | inhibition at 1 µM (Plk3(h)): -7% | inhibition at 1 µM (MST3(h)): -3% | inhibition at 1 µM (AMPKα2(h)): 13% | inhibition at 1 µM (CLK3(h)): 23% | inhibition at 1 µM (Rsk3(h)): 27% | inhibition at 1 µM (MELK(h)): 13% | inhibition at 1 µM (PEK(h)): 8% | inhibition at 1 µM (ASK1(h)): 23% | inhibition at 1 µM (Hck(h)): 16% | inhibition at 1 µM (Snk(h)): -2% | inhibition at 1 µM (Axl(h)): 9% | inhibition at 1 µM (EphB2(h)): -8% | inhibition at 1 µM (CK1γ1(h)): 10% | inhibition at 1 µM (SRPK1(h)): 7% | inhibition at 1 µM (IGF-1R(h), activated): 32% | inhibition at 1 µM (Hck(h) activated): 22% | inhibition at 1 µM (CK2α2(h)): 4% | inhibition at 1 µM (EphA7(h)): -3% | inhibition at 1 µM (SRPK2(h)): -7% | inhibition at 1 µM (eEF-2K(h)): -7% | inhibition at 1 µM (CK1γ3(h)): 19% | inhibition at 1 µM (PrKX(h)): -22% | inhibition at 1 µM (ULK3(h)): 14% | inhibition at 1 µM (PKG1α(h)): 30% | inhibition at 1 µM (SAPK2a(h)): 0% | inhibition at 1 µM (TGFBR1(h)): 21% | inhibition at 1 µM (PKA(h)): -6% | inhibition at 1 µM (PKCδ(h)): 6% | inhibition at 1 µM (BrSK2(h)): 9% | inhibition at 1 µM (Fgr(h)): 33% | inhibition at 1 µM (PAK5(h)): 10%
